Test results from PubChem BioAssay AID248 (DTP/NCI, 2004).
Where “and” joins values, the source holds several entries; their conditions need not be identical. Equal entries are not always repeated. Inconclusive results and toxic doses are left out. Rule as the data show it: active = T/C of 150% or more; inactive = T/C below 125%.

Tested on: L1210 leukemia ip in BDF1 mice, survival T/C
Assay: NCI In Vivo Anticancer Drug Screen. Data for tumor model L1210 Leukemia (intraperitoneal) in B6D2F1 (BDF1) mice
Settings: endpoint: mean survival time, higher = longer survival
Procedure, shortened: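 Read-out is survival time, reported as the treated-group measurement over the vehicle-control measurement.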

[1] = dose: 100.0 mg/kg/injection, schedule: Q01DX009 (ip), vehicle: Klucel (hydroxypropylcellulose) (HPC)
[2] = dose: 200.0 mg/kg/injection, schedule: Q01DX009 (ip), vehicle: Klucel (hydroxypropylcellulose) (HPC)
[3] = dose: 400.0 mg/kg/injection, schedule: Q01DX009 (ip), vehicle: Klucel (hydroxypropylcellulose) (HPC)
[4] = dose: 100.0 mg/kg/injection, schedule: Q01DX001 (ip), vehicle: saline
[5] = dose: 200.0 mg/kg/injection, schedule: Q01DX001 (ip), vehicle: saline
[6] = dose: 400.0 mg/kg/injection, schedule: Q01DX001 (ip), vehicle: saline
[7] = dose: 100.0 mg/kg/injection, schedule: Q04DX003 (ip), vehicle: Klucel (hydroxypropylcellulose) (HPC)
[8] = dose: 200.0 mg/kg/injection, schedule: Q04DX003 (ip), vehicle: Klucel (hydroxypropylcellulose) (HPC)
[9] = dose: 400.0 mg/kg/injection, schedule: Q04DX003 (ip), vehicle: Klucel (hydroxypropylcellulose) (HPC)

Measured: T/C

OC1C(Br)CC(Br)C1O (stereo not drawn)
inactive: dose: 100.0 mg/kg/injection, schedule: Q04DX002 (ip), vehicle: saline with Tween-80 97 % of control | dose: 200.0 mg/kg/injection, schedule: Q04DX002 (ip), vehicle: saline with Tween-80 93 % of control | dose: 400.0 mg/kg/injection, schedule: Q04DX002 (ip), vehicle: saline with Tween-80 101 % of control

O=C(/C=C/c1ccccc1)N(Cc1ccccc1)c1ccccc1
inactive: [1] 97 % of control | [2] 101 % of control | [3] 103 % of control

O=C(Nc1ccccc1F)Oc1ccc([N+](=O)[O-])cc1
inactive: dose: 25.0 mg/kg/injection, schedule: Q01DX009 (ip), vehicle: Klucel (hydroxypropylcellulose) (HPC) 106 % of control | dose: 50.0 mg/kg/injection, schedule: Q01DX009 (ip), vehicle: Klucel (hydroxypropylcellulose) (HPC) 95 % of control | [1] 94 % of control and 112 % of control

CCOC(=O)CCCN(C(=O)c1ccccc1)c1scc(-c2ccccc2)c1C(=O)OCC
inactive: dose: 50.0 mg/kg/injection, schedule: Q04DX003 (ip), vehicle: saline with Tween-80 92 % of control | dose: 100.0 mg/kg/injection, schedule: Q04DX003 (ip), vehicle: saline with Tween-80 95 % of control | dose: 200.0 mg/kg/injection, schedule: Q04DX003 (ip), vehicle: saline with Tween-80 94 % of control | dose: 400.0 mg/kg/injection, schedule: Q04DX003 (ip), vehicle: saline with Tween-80 103 % of control

CS(=O)(=O)CCCl
inactive: dose: 100.0 mg/kg/injection, schedule: Q01DX009 (ip), vehicle: carboxymethylcellulose (CMC) 102 % of control and 106 % of control | dose: 100.0 mg/kg/injection, schedule: Q04DX002 (ip), vehicle: Klucel (hydroxypropylcellulose) (HPC) 103 % of control | dose: 100.0 mg/kg/injection, schedule: Q04DX002 (ip), vehicle: carboxymethylcellulose (CMC) 100 % of control and 109 % of control | dose: 100.0 mg/kg/injection, schedule: Q04DX003 (ip), vehicle: carboxymethylcellulose (CMC) 107 % of control | dose: 200.0 mg/kg/injection, schedule: Q01DX009 (ip), vehicle: carboxymethylcellulose (CMC) 98 % of control and 102 % of control | dose: 200.0 mg/kg/injection, schedule: Q04DX002 (ip), vehicle: Klucel (hydroxypropylcellulose) (HPC) 103 % of control | dose: 200.0 mg/kg/injection, schedule: Q04DX002 (ip), vehicle: carboxymethylcellulose (CMC) 97 % of control and 98 % of control | dose: 200.0 mg/kg/injection, schedule: Q04DX003 (ip), vehicle: carboxymethylcellulose (CMC) 98 % of control | dose: 400.0 mg/kg/injection, schedule: Q04DX002 (ip), vehicle: Klucel (hydroxypropylcellulose) (HPC) 103 % of control | dose: 400.0 mg/kg/injection, schedule: Q04DX002 (ip), vehicle: carboxymethylcellulose (CMC) 102 % of control and 105 % of control | dose: 400.0 mg/kg/injection, schedule: Q04DX003 (ip), vehicle: carboxymethylcellulose (CMC) 102 % of control

O=C(O)CC[n+]1c(/C=C/c2cc(Br)c(O)c(Br)c2)sc2ccccc21
inactive: dose: 100.0 mg/kg/injection, schedule: Q04DX003 (ip), vehicle: saline sonified 102 % of control | dose: 200.0 mg/kg/injection, schedule: Q04DX003 (ip), vehicle: saline sonified 99 % of control

O=c1[nH]c2cc3ccccc3cc2c2ccccc12
inactive: [4] 109 % of control | [5] 95 % of control | [6] 100 % of control

C[C@@H]1C[C@](O)([C@@H](C)Cl)C(=O)O[C@@H]2CCN3CC=C(COC(=O)[C@]1(C)O)[C@H]23
inactive: dose: 3.0 mg/kg/injection, schedule: Q01DX Z (ip), vehicle: saline 107 % of control | dose: 6.0 mg/kg/injection, schedule: Q01DX Z (ip), vehicle: saline 103 % of control | dose: 12.0 mg/kg/injection, schedule: Q01DX Z (ip), vehicle: saline 100 % of control | dose: 24.0 mg/kg/injection, schedule: Q01DX Z (ip), vehicle: saline 103 % of control

CC1CCN(C(=O)CCCCl)CC1
inactive: dose: 100.0 mg/kg/injection, schedule: Q04DX002 (ip), vehicle: saline 104 % of control | dose: 200.0 mg/kg/injection, schedule: Q04DX002 (ip), vehicle: saline 114 % of control

CCn1cnc2c(SC)nc(N)nc21
inactive: dose: 37.5 mg/kg/injection, schedule: Q01DX009 (ip), vehicle: Klucel (hydroxypropylcellulose) (HPC) 101 % of control | dose: 50.0 mg/kg/injection, schedule: Q04DX003 (ip), vehicle: other 101 % of control | dose: 75.0 mg/kg/injection, schedule: Q01DX009 (ip), vehicle: Klucel (hydroxypropylcellulose) (HPC) 103 % of control | dose: 100.0 mg/kg/injection, schedule: Q04DX003 (ip), vehicle: other 104 % of control | dose: 150.0 mg/kg/injection, schedule: Q01DX009 (ip), vehicle: Klucel (hydroxypropylcellulose) (HPC) 108 % of control | dose: 200.0 mg/kg/injection, schedule: Q04DX003 (ip), vehicle: other 87 % of control

Cc1cc(CC(Cl)(C(F)(F)F)C(F)(F)F)cc(CC(Cl)(C(F)(F)F)C(F)(F)F)n1
inactive: dose: 12.5 mg/kg/injection, schedule: Q01DX009 (ip), vehicle: saline with Tween-80 108 % of control | dose: 25.0 mg/kg/injection, schedule: Q01DX009 (ip), vehicle: saline with Tween-80 106 % of control

Cc1cc(=O)c2cc(Cl)cc(Br)c2[nH]1
inactive: [4] 94 % of control | [5] 96 % of control | [6] 103 % of control

O=C(O)c1cc(N=C2C=CC(=C(c3ccccc3)c3ccc(Nc4ccc(Cl)c(C(=O)O)c4)cc3)C=C2)ccc1Cl
inactive: dose: 100.0 mg/kg/injection, schedule: Q01DX001 (ip), vehicle: other 97 % of control | [1] 105 % of control | dose: 200.0 mg/kg/injection, schedule: Q01DX001 (ip), vehicle: other 100 % of control | [2] 97 % of control | dose: 400.0 mg/kg/injection, schedule: Q01DX001 (ip), vehicle: other 103 % of control

Cc1ccc(S(=O)(=O)OC/C(=C(/c2ccccc2)c2ccc(Cl)cc2)c2ccccc2)cc1
inactive: dose: 6.25 mg/kg/injection, schedule: Q04DX003 (ip), vehicle: saline with Tween-80 96 % of control | dose: 12.5 mg/kg/injection, schedule: Q04DX003 (ip), vehicle: saline with Tween-80 98 % of control | dose: 25.0 mg/kg/injection, schedule: Q04DX003 (ip), vehicle: saline with Tween-80 95 % of control

O=S(=O)(Nc1ccccn1)c1ccccc1
inactive: [2] 103 % of control | [3] 98 % of control

O=C(Nc1ccc(F)cc1)OCCOc1ccc([N+](=O)[O-])cc1
inactive: [1] 96 % of control | [2] 107 % of control | [3] 93 % of control

O=[N+]([O-])c1cccc2c([N+](=O)[O-])cccc12
inactive: dose: 100.0 mg/kg/injection, schedule: Q01DX009 (ip), vehicle: saline sonified 107 % of control | [7] 95 % of control | dose: 200.0 mg/kg/injection, schedule: Q01DX009 (ip), vehicle: saline sonified 101 % of control | [8] 92 % of control | dose: 400.0 mg/kg/injection, schedule: Q01DX009 (ip), vehicle: saline sonified 109 % of control | [9] 90 % of control

OC1c2cc(Br)ccc2-c2c(F)cc(Br)cc21 (stereo not drawn)
inactive: dose: 100.0 mg/kg/injection, schedule: Q01DX001 (ip), vehicle: carboxymethylcellulose (CMC) 100 % of control | dose: 200.0 mg/kg/injection, schedule: Q01DX001 (ip), vehicle: carboxymethylcellulose (CMC) 109 % of control | dose: 400.0 mg/kg/injection, schedule: Q01DX001 (ip), vehicle: carboxymethylcellulose (CMC) 103 % of control

COc1ccc(C(=O)N/N=C/C(CC(O)CO)=N/NC(=O)c2ccc(OC)cc2)cc1 (stereo not drawn)
inactive: [7] 95 % of control | [8] 92 % of control | [9] 96 % of control

CSc1nncc(=O)[nH]1.[Hg]
inactive: dose: 5.0 mg/kg/injection, schedule: Q01DX001 (ip), vehicle: carboxymethylcellulose (CMC) 91 % of control | dose: 10.0 mg/kg/injection, schedule: Q01DX001 (ip), vehicle: carboxymethylcellulose (CMC) 102 % of control
